Read-outs that look alike come from different tables or passages of the source.
What was measured:
Format in all cases: cell-based, rat
[1] = tested on: voltage-gated Na+ currents (INa) in pituitary GH3 cells; assay: Whole-cell patch-clamp of voltage-gated Na+ current evoked by depolarization from −80 to −10 mV; settings: for Effect on SSM-induced inhibition of peak INa: 10 μM added in continued presence of SSM (3 μM); for Effect on peak amplitude of INa: −80 to −10 mV (Figure 2); for IC50: GH3 cells, depolarization −80 to −10 mV
Protocol: In an initial step of the experiments, we examined the effects of SSM on the amplitude and gating of INa in response to rapid membrane depolarization. Cells were bathed in Ca^2+-free Tyrode’s solution containing 10 mM tetraethylammonium chloride (TEA) and the recording pipette was backfilled with a Cs^+-containing solution. […] For example, when rapid membrane depolarization from −80 to −10 mV with a duration of 40 msec was delivered (indicated in the inset of Figure 1A) to evoke INa, the addition of 3 μM SSM caused a decrease in the peak or sustained amplitude of INa to 139 ± 11 pA (n = 11, P < 0.05) or 12 ± 3 pA (n = 11, P < 0.05), respectively, from the control values of 248 ± 18 or 21 ± 2 pA (n = 11). After the removal of SSM, the peak and sustained amplitude returned to 232 ± 16 or 19 ± 2 pA (n = 7, P < 0.05).
The bath solution (i.e., a HEPES-buffered normal Tyrode’s solution) utilized in the present study was composed of 136 mM NaCl, 5.4 mM KCl, 1.8 mM CaCl2, 0.53 mM MgCl2, 5.5 mM glucose, and 5.5 mM HEPES titrated with NaOH to pH 7.4. To measure macroscopic IK(DR) and Ih, we filled patch pipettes by using a solution containing 130 mM K-aspartate, 20 mM KCl, 1 mM KH2PO4, 1 mM MgCl2, 3 mM Na2ATP, 0.1 mM Na2GTP, 0.1 mM EGTA, and 5 mM HEPES adjusted with KOH to pH 7.2. To record INa and INa(R), we substituted K^+ ions in the pipette solution inside the electrode for equmolar Cs^+ ions and the pH value in the solution was adjusted to 7.2 with CsOH. To measure IK(erg) and IK(M), cells were bathed in a high-K^+ solution containing 145 mM KCl, 0.53 mM MgCl2, and 5 mM HEPES-KOH buffer, pH 7.4. All solutions were prepared using deionized water from a Millipore Milli-Q purification system (ρ = 18 MΩ·cm) (Merck, Ltd., Taipei, Taiwan). The pipette solution and culture medium were filtered on the day of use with a sterile Acrodisc® syringe filter with a 0.2-μm Supor® membrane (Bio-Check; New Taipei City, Taiwan).
The pituitary adenomatous cell line, GH3, was acquired from the Bioresource Collection and Research Center ((BCRC-60015, https://catalog.bcrc.firdi.org.tw/BcrcContent?bid=60015); Hsinchu, Taiwan). Cells were maintained in Ham’s F-12 medium supplemented with 2.5% fetal bovine serum (v/v), 15% horse serum (v/v), and 2 mM L-glutamine in a humidified environment of 5% CO2/95% air. When well differentiated, GH3 cells were transferred to a serum- and Ca^2+-free medium. Electrical recordings were performed 5 or 6 days after cells were cultured with 60–80% confluence.
On the day of each experiment, cells were dispersed with a 1% trypsin/EDTA solution and a few drops of cell suspension were rapidly placed in a custom-built recording chamber mounted on the stage of an inverted DM-IL microscope (Leica; Major Instruments, Kaohsiung, Taiwan). They were immersed at room temperature (20–25 °C) in normal Tyrode’s solution, the composition of which is elaborated above. We measured ion currents in the whole-cell model of a standard patch-clamp technique with dynamic adaptive suctioning (i.e., decremental change of suction pressure in response to a progressive increase in the electrode resistance), with the aid of an RK-400 (Bio-Logic, Claix, France) or an Axopatch-200B (Molecular Devices, Sunnyvale, CA) patch amplifier. The microelectrodes used were prepared from Kimax-51 borosilicate capillaries with a 1.5-mm outer diameter (#34500; Kimble; Dogger, New Taipei City, Taiwan) by using a PP-830 vertical puller (Narishige, Taiwan Instrument, Taipei, Taiwan). The recording electrodes had their tip resistances, which ranged between 3 and 5 MΩ, as they were filled up with the different internal solutions elaborated above. During the measurements, the recorded area on the vibration-free table was shielded by using a Faraday cage (Scitech, Seoul, South Korea). […]

[2] = tested on: hyperpolarization-activated cation currents (Ih) in GH3 cells; assay: Whole-cell patch-clamp of hyperpolarization-activated cation current (−40 to −110 mV)
Protocol: In the following experiments, we further studied whether the presence of SSM could perturb another type of inwardly directed current, i.e., Ih. Cells were exposed to Ca^2+-free Tyrode’s solution containing 1 μM TTX and the pipette was filled with K^+-containing solution. As the hyperpolarizing command pulse from −40 to −110 mV with a duration of 2 sec was delivered, Ih with a slowly activating property was robustly evoked, as observed previously. […] Cilobradine has recently been reported to decrease Ih amplitude, as well as to alter activation kinetics present in different types of excitable cells.
(§1) The bath solution (i.e., a HEPES-buffered normal Tyrode’s solution) utilized in the present study was composed of 136 mM NaCl, 5.4 mM KCl, 1.8 mM CaCl2, 0.53 mM MgCl2, 5.5 mM glucose, and 5.5 mM HEPES titrated with NaOH to pH 7.4. To measure macroscopic IK(DR) and Ih, we filled patch pipettes by using a solution containing 130 mM K-aspartate, 20 mM KCl, 1 mM KH2PO4, 1 mM MgCl2, 3 mM Na2ATP, 0.1 mM Na2GTP, 0.1 mM EGTA, and 5 mM HEPES adjusted with KOH to pH 7.2. To record INa and INa(R), we substituted K^+ ions in the pipette solution inside the electrode for equmolar Cs^+ ions and the pH value in the solution was adjusted to 7.2 with CsOH. […]
(§2) On the day of each experiment, cells were dispersed with a 1% trypsin/EDTA solution and a few drops of cell suspension were rapidly placed in a custom-built recording chamber mounted on the stage of an inverted DM-IL microscope (Leica; Major Instruments, Kaohsiung, Taiwan). […] We measured ion currents in the whole-cell model of a standard patch-clamp technique with dynamic adaptive suctioning (i.e., decremental change of suction pressure in response to a progressive increase in the electrode resistance), with the aid of an RK-400 (Bio-Logic, Claix, France) or an Axopatch-200B (Molecular Devices, Sunnyvale, CA) patch amplifier. […] During the measurements, the recorded area on the vibration-free table was shielded by using a Faraday cage (Scitech, Seoul, South Korea). […]

[3] = tested on: M-type K+ currents (IK(M)) in GH3 cells; assay: Whole-cell patch-clamp of M-type K+ current (depolarization from −50 to −10 mV, 1 sec); settings: amplitude at end of pulse, read-out: IC50 for decrease of IK
Description: The following experiments were further undertaken to determine whether the addition of SSM could exert any perturbations on the amplitude or gating of IK(M) in these cells. Cells were bathed in high-K^+, Ca^2+-free solution, and the recording pipette was then filled with K^+-enriched solution. Figure 5 illustrates that the presence of SSM can result in a concentration-dependent depression in the amplitude of IK(M) during step depolarization.
The bath solution (i.e., a HEPES-buffered normal Tyrode’s solution) utilized in the present study was composed of 136 mM NaCl, 5.4 mM KCl, 1.8 mM CaCl2, 0.53 mM MgCl2, 5.5 mM glucose, and 5.5 mM HEPES titrated with NaOH to pH 7.4. […]
On the day of each experiment, cells were dispersed with a 1% trypsin/EDTA solution and a few drops of cell suspension were rapidly placed in a custom-built recording chamber mounted on the stage of an inverted DM-IL microscope (Leica; Major Instruments, Kaohsiung, Taiwan). […] We measured ion currents in the whole-cell model of a standard patch-clamp technique with dynamic adaptive suctioning (i.e., decremental change of suction pressure in response to a progressive increase in the electrode resistance), with the aid of an RK-400 (Bio-Logic, Claix, France) or an Axopatch-200B (Molecular Devices, Sunnyvale, CA) patch amplifier. […]

[4] = tested on: resurgent INa (INa(R)) in GH3 cells; assay: Whole-cell patch-clamp of resurgent INa (step to +20 mV, repolarization to −50 to 0 mV); settings: 1 μM; at −30 mV; control 46 ± 6 pA; n = 8
Description: We next wanted to determine whether SSM exerts any effects on INa(R) identified from these cells. The whole-cell experiments on INa(R) were undertaken when each cell was voltage clamped at −80 mV and a brief depolarizing step to +20 mV was delivered to activate transient INa. The INa(R) upon repolarization to various potentials ranging between −50 and 0 mV was thereafter measured at the end of voltage pulses (Figure 4). The effect of SSM on INa(R) was examined at various membrane potentials, and the I-V relationship of INa(R) with or without the addition of SSM was constructed. […]
as §2

[5] = tested on: delayed rectifier K+ currents (IK(DR)) in GH3 cells; assay: Whole-cell patch-clamp of delayed rectifier K+ current (1-sec step depolarization)
Protocol: We next examined whether the presence of SSM is able to modify IK(DR) present in GH3 cells. To achieve this goal, we bathed cells in Ca^2+-free Tyrode’s solution which contained 1 μM TTX, and then filled up the recording electrode by using K^+-containing solution. When cells were exposed to SSM at a concentration of 3 μM, the amplitude of IK(DR) in response to a 1-sec step depolarization was unchanged. It is noted, however, that the IK(DR) amplitudes responding to different levels of depolarizing command steps were decreased by the addition of 10 μM SSM, though the activation time course of IK(DR) evoked by membrane depolarization remained unchanged.
as §1, §2

[6] = amplitude at beginning of pulse, read-out: IC50 for decrease of peak INa
[7] = amplitude at end of pulse, read-out: IC50 for decrease of sustained INa

With `Cc1c(F)c(F)c(COC(=O)[C@@H]2[C@H](/C=C(\Cl)C(F)(F)F)C2(C)C)c(F)c1F` (racemic) [tefluthrin, reference compound] the “Effect on SSM-induced inhibition of peak INa” value [1] was “effective in reversing”.

In the case of `c1cc2c(cc1[C@H]1OC[C@H]3[C@@H]1CO[C@@H]3c1ccc3c(c1)OCO3)OCO2` [SSM, [1S-(1α,3aα,4α,6aα)] -5,5’- (tetrahydro-1H,3H-furo [3–4-c]furan-1,4-diyl)bis-1,3-benzodioxole], the “Effect on peak amplitude of INa” value ([1]; 3 μM) is reported as “produced inhibitory effects”, the “Sustained amplitude of INa” value ([1]; 3 μM, −80 to −10 mV, 40 msec, control 21 ± 2 pA, n = 11) is reported as 12 ± 3 pA and the “Peak amplitude of INa” value ([1]; 3 μM, −80 to −10 mV, 40 msec, control 248 ± 18 pA, n = 11) is reported as 139 ± 11 pA. For the same molecule, the “Effect on peak component of INa” value ([1]; 0.1 to 0.3 μM) was “little or no effect”, the “Effect on sustained component of INa” value ([1]; 0.1 to 0.3 μM) was “effectively blocked” and the IC50 [1, 6] was 7.2 µM. For the same molecule, the IC50 [1, 7] was 0.6 µM, the Kd ([1]; first-order reaction scheme, open-state block, read-out: Dissociation constant (KD = k−1/k+1*) of INa block) was 0.93 µM and the “Unblocking (backward) rate constant k−1 of INa block” value ([1]; from intercept of 1/τinact(S) versus [SSM]) was 0.0415 msec^−1. For the same molecule, the “Blocking (forward) rate constant k+1* of INa block” value ([1]; from slope of 1/τinact(S) versus [SSM]) was 0.0449 msec^−1μM^−1, the “Peak amplitude of INa after removal of compound” value ([1]; washout after 3 μM, n = 7) was 232 ± 16 pA and the “Sustained amplitude of INa after removal of compound” value ([1]; washout after 3 μM, n = 7) was 19 ± 2 pA. For the same molecule, the “Ih amplitude at end of hyperpolarizing step” value ([2]; 10 μM, at −110 mV, control 388 ± 24 pA, n = 9) was 386 ± 26 pA, the IC50 [3] was 4.8 µM and the “INa(R) amplitude” value [4] was 22 ± 5 pA. The “Effect on amplitude of IK(DR)” value ([5]; 3 μM, 1-sec step depolarization) was “unchanged”, the “IK(DR) amplitude” value ([5]; 10 μM, at +40 mV, control 598 ± 34 pA, n = 8) was 454 ± 29 pA and the “Decrease of IK(DR) amplitude” value ([5]; 10 μM, at +40 mV, n = 8) was 23 ± 4%.

`c1cc2c(cc1O[C@H]1OC[C@H]3[C@@H]1CO[C@@H]3c1ccc3c(c1)OCO3)OCO2` [SesA, 5-[(1S,3aR,4R,6aR)-4-(1,3-benzodioxol-5-yloxy)tetrahydro-1H,3H-furo[3,4-c]furan-1-yl]-1,3-benzodioxole] was tested, and the “Effect on peak amplitude of INa” value ([1]; 3 μM) was “produced inhibitory effects”, the IC50 [1, 6] was 9.8 µM and the IC50 [1, 7] was 2.5 µM. The “Effect on Ih amplitude” value ([2]; 10 μM) was “minimal effect”.

`COc1ccc(CCN2CCC[C@H](CN3CCc4cc(OC)c(OC)cc4CC3=O)C2)cc1OC` [cilobradine, reference compound] was tested, and the “Effect on Ih amplitude” value ([2]; 3 or 10 μM added in continued presence of SSM (10 μM)) was “highly effective at inhibiting”.

With `CCCc1nc2c(C)cc(-c3nc4ccccc4n3C)cc2n1Cc1ccc(-c2ccccc2C(=O)O)cc1` [telmisartan, reference compound] the “Effect on SSM-induced inhibition of peak INa” value [1] was “effective in reversing”.

— publication PMC7411736, “Effects of Sesamin, the Major Furofuran Lignan of Sesame Oil, on the Amplitude and Gating of Voltage-Gated Na^+ and K^+ Currents” (Molecules, 2020)
